*1 amine or outer side, *2 acyl side, *3 side chain or, on linkers, in order; H or OH if unused. Where a SMILES comes first, the peptide text is derived from it. Bridges are numbered along the chain shown (N, C = ends). [ ]: non-standard residue; d: D form. The star is where a group is joined. ξ: configuration not given here. X2 = O=C(C(N[*:1])c1ccc(OC2OC(CO)C(O)C(O)C2OC2OC(CO)C(O)C(O)C2O)cc1)[*:2]; Undeca(2Z,4E)dienoyl(10-Me) = CC(C)CCCC/C=C/C=C\C(=O)*; Octa(2Z,4E)dienoyl(7-Me) = CC(C)C/C=C/C=C\C(=O)*; X5 = O=C(C(N[*:1])c1cc(Cl)c(O)c(Cl)c1)[*:2]; ξPhg(3-Cl-4-OH) = NC(C(=O)O)c1ccc(O)c(Cl)c1; X1 = NC(=O)C(O[*:3])C(N[*:1])C(=O)[*:2]; X4 = N=C1NCC(CC(N[*:1])C(=O)[*:2])N1; Hpg = N[CH](C(=O)O)c1ccc(O)cc1; X3 = CCC(C)CCCC/C=C/C=C\C(=O)*; Cit = NC(=O)NCCC[CH](N)C(=O)O; Orn = NCCC[CH](N)C(=O)O; X6 = Cc1ccccc1CC(=O)*
Tests used:
[1] = target: N-terminally acetylated alpha-synuclein (Asyn) (Homo sapiens, UniProt P37840); assay: Seeded α-synuclein aggregation assay (ThT fluorescence, TEM); format: biochemical; settings: for in vitro aggregation of alpha-synuclein (ThT fluorescence): 3-fold excess of compound, 25 μM Asyn monomers, 1% (v/v) fibril seeds, 37° C.; for Asyn fibril morphology (TEM) / Asyn oligomer formation (TEM): compound/Asyn mixtures
Procedure: (§1) (A, B) Thioflavin-T (ThT) fluorescence curves of N-terminally acetylated alpha-synuclein (Asyn) in the absence (cross) and presence of a 3-fold excess (white circles) of compound. […] Quantitative analysis of Asyn aggregation kinetics was performed by nonlinear regression with sigmoidal fitting to determine the midpoint value (Tm) of the fluorescence curve as well as the fluorescence span. Unpaired two-tailed t-test was performed to test the null hypothesis (p≤0.0332(*), p≤0.002(**), p≤0.0002 (***), p≤0.0001 (****)). […] (C) TEM imaging analysis of the compound/Asyn mixtures. Scale bars correspond to 200 nm.
as §1, with “ThT” for “Thioflavin-T (ThT)”, “circles or triangles)” for “circles)”
(A) ThT fluorescence curves of N-terminally acetylated alpha-synuclein (Asyn) in the absence (cross) and presence of a 3-fold excess (white circles) of compound. […] Quantitative analysis of Asyn aggregation kinetics was performed by nonlinear regression with sigmoidal fitting to determine the midpoint value (Tm) of the fluorescence curve as well as the fluorescence span.
Asyn protein stock solutions were prepared in 50 mM HEPES at pH 7.4 with 100 mM NaCl. Stocks of compounds were prepared in the same buffer (500 μM) or as 10 mM compound in DMSO. […] The microplate was likewise subjected to the incubation and fluorescence measurement program used in in vitro assay 1. After about 2-4 days of incubation, ThT fluorescence emission reached the maximal value and the Asyn fibril-containing mixture was collected as “fibril seed” mixture for subsequent Asyn aggregation experiments.

[2] = test system: Tau aggregation in HEK biosensor cells (TauRD^LM-GFP); settings: induced by cell lysate containing Tau aggregates; 0.25 μM to 40 μM, 22 h, lipofectamine
[3] = target: T1, amylin (human islet amyloid polypeptide or hIAPP) (Homo sapiens, UniProt P10997); assay: Amylin aggregation assay (ThT); format: biochemical; settings: 5 μM hIAPP monomers, various doses, 37° C.
T1 construct: 5 μM amylin (human islet amyloid polypeptide or hIAPP) monomers
T1 sequence (P10997 34-70 limits assumed): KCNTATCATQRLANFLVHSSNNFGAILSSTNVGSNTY

[4] = target: bovine serum albumin (BSA) (Bos taurus, UniProt P02769); settings: Shivani A et al. 2020; cited from earlier work
Sequence of bovine serum albumin (BSA) (P02769 25-607): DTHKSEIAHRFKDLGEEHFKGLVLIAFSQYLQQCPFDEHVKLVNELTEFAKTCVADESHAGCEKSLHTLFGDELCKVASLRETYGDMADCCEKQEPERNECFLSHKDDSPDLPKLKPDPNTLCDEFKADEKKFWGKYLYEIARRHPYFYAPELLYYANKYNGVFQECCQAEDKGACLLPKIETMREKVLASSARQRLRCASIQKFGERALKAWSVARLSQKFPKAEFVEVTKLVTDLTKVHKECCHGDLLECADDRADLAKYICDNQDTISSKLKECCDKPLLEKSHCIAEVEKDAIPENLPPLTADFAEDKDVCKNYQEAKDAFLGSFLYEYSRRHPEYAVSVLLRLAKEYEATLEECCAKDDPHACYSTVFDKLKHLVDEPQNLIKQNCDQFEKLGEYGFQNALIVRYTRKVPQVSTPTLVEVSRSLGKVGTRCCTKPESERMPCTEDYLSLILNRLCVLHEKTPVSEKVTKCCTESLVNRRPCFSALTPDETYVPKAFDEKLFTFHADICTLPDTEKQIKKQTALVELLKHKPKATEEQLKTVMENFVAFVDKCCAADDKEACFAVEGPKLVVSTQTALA

Row | Compound | in vitro aggregation of alpha-synuclein (ThT fluorescence) [1] | Asyn fibril morphology (TEM) [1] | inhibition of seeded Tau aggregation [2] | Asyn oligomer formation (TEM) [1] | in vitro aggregation of amylin (final ThT fluorescence, t=50 h) [3] | aggregation of bovine serum albumin (BSA) [4]
1 | CC(C)CCCC/C=C/C=C\C(=O)NC(CC(=O)O)C(=O)NC1C(=O)NC(c2ccc(O)cc2)C(=O)NC(CCCN)C(=O)NC(C(C)O)C(=O)NC(c2ccc(O)cc2)C(=O)NC(c2ccc(O)cc2)C(=O)NC(C(C)O)C(=O)NC(CCCNC(N)=O)C(=O)NC(CC2CNC(=N)N2)C(=O)NC(c2ccc(O)cc2)C(=O)NC(CO)C(=O)NC(c2cc(Cl)c(O)c(Cl)c2)C(=O)NCC(=O)NC(CC2CNC(=N)N2)C(=O)NC(C)C(=O)NC(c2ccc(O)cc2)C(=O)OC1C (stereo not drawn) [Enduracidin A] ({Undeca(2Z,4E)dienoyl(10-Me)}-DT[Hpg][Orn]T[Hpg][Hpg]T[Cit][X4][Hpg]S[X5]G[X4]A[Hpg]; ester 2-C; configuration not given here) | inhibit the in vitro aggregation | shorter fibrils with a rougher surface | showed inhibition of seeded Tau aggregation | – | – | –
2 | CCC(C)CCCC/C=C/C=C\C(=O)NC(CC(=O)O)C(=O)NC1C(=O)NC(c2ccc(O)cc2)C(=O)NC(CCCN)C(=O)NC(C(C)O)C(=O)NC(c2ccc(O)cc2)C(=O)NC(c2ccc(O)cc2)C(=O)NC(C(C)O)C(=O)NC(CCCNC(N)=O)C(=O)NC(CC2CNC(=N)N2)C(=O)NC(c2ccc(O)cc2)C(=O)NC(CO)C(=O)NC(c2cc(Cl)c(O)c(Cl)c2)C(=O)NCC(=O)NC(CC2CNC(=N)N2)C(=O)NC(C)C(=O)NC(c2ccc(O)cc2)C(=O)OC1C (stereo not drawn) [Enduracidin B] (X3-DT[Hpg][Orn]T[Hpg][Hpg]T[Cit][X4][Hpg]S[X5]G[X4]A[Hpg]; ester 2-C; configuration not given here) | inhibit the in vitro aggregation | shorter fibrils with a rougher surface | – | Asyn oligomer formation also competes with Asyn fibril formation | inhibit the in vitro aggregation of amylin | –
3 | Cc1ccccc1CC(=O)NC(CC(N)=O)C(=O)NC1C(=O)NC(c2ccc(O)cc2)C(=O)NC(CCCN)C(=O)NC(C(C)O)C(=O)NC(c2ccc(O)cc2)C(=O)NC(c2ccc(O)cc2)C(=O)NC(C(C)O)C(=O)NC(Cc2ccccc2)C(=O)NC(CCCN)C(=O)NC(c2ccc(OC3OC(CO)C(O)C(O)C3OC3OC(CO)C(O)C(O)C3O)cc2)C(=O)NC(C(C)O)C(=O)NC(c2ccc(O)cc2)C(=O)NCC(=O)NC(CC(C)C)C(=O)NC(C)C(=O)NC(c2ccc(O)c(Cl)c2)C(=O)OC1C(N)=O (stereo not drawn) [NAI-603, Ramoplanin 2-methyl-phenyl derivative NAI-603] (X6-N[X1][Hpg][Orn]T[Hpg][Hpg]TF[Orn][X2]T[Hpg]GLA[ξPhg(3-Cl-4-OH)]; ester 2-C; configuration not given here) | – | – | – | – | inhibit the in vitro aggregation of amylin | –
4 | CC(C)C/C=C/C=C\C(=O)NC(CC(N)=O)C(=O)NC1C(=O)NC(c2ccc(O)cc2)C(=O)NC(CCCN)C(=O)NC(C(C)O)C(=O)NC(c2ccc(O)cc2)C(=O)NC(c2ccc(O)cc2)C(=O)NC(C(C)O)C(=O)NC(Cc2ccccc2)C(=O)NC(CCCN)C(=O)NC(c2ccc(O)cc2)C(=O)NC(C(C)O)C(=O)NC(c2ccc(O)cc2)C(=O)NCC(=O)NC(CC(C)C)C(=O)NC(C)C(=O)NC(c2ccc(O)c(Cl)c2)C(=O)OC1C(N)=O (stereo not drawn) [Ramoplanin A2 Aglycon, Ramoplanin aglycon] ({Octa(2Z,4E)dienoyl(7-Me)}-N[X1][Hpg][Orn]T[Hpg][Hpg]TF[Orn][Hpg]T[Hpg]GLA[ξPhg(3-Cl-4-OH)]; ester 2-C; configuration not given here) | inhibit the in vitro aggregation | – | – | favors the formation of Asyn oligomers | – | –
5 | CNC(CC(C)C)C(=O)NC1C(=O)NC(CC(N)=O)C(=O)NC2C(=O)NC3C(=O)NC(C(=O)NC(C(=O)O)c4cc(O)cc(O)c4-c4cc3ccc4O)C(O)c3ccc(c(Cl)c3)Oc3cc2cc(c3OC2OC(CO)C(O)C(O)C2OC2CC(C)(N)C(O)C(C)O2)Oc2ccc(cc2Cl)C1O (stereo not drawn) [Vancomycin, reference compound] | – | – | showed inhibition of seeded Tau aggregation | – | – | –
6 | Teicoplanin [reference compound] | inhibits the in vitro aggregation | – | showed inhibition of seeded Tau aggregation | Asyn oligomer formation competes with Asyn fibril formation | – | inhibition of the aggregation
